Assay results taken from patent US6914045B2, “Glycopeptide antibiotics” (Wyeth Holdings Corporation, priority 2001, dated 2005).

Columns and labels:
Experiment in all cases: in vitro antibacterial evaluation, MIC by broth dilution
Assay type in all cases: cell-based
Escherichia coli = conditions: 18 hours at 35° C.
Enterococcus sp. = conditions: broth dilution, 18 hours at 35° C.
Method in brief: (§1)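 Broth dilution per NCCLS M7-A2 in Mueller-Hinton II medium, inoculum 5×10^5 CFU/mL, antibiotic range 64-0.06 μg/mL. MIC taken as lowest concentration inhibiting growth; Gram-positive panel includes recent clinical isolates resistant to methicillin, penicillin and/or vancomycin.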

Streptococcus sp. = conditions: broth dilution, 18 hours at 35° C.
Method in brief: as §1

Staphylococcus sp. = conditions: broth dilution, 18 hours at 35° C.
Method in brief: as §1

CC(c1ccccc1)C1NC(=O)CNC(=O)C(CO)NC(=O)C(C(O)C2CNC(=N)N2C2OC(CO)C(O)C3OC(C)(C)OC32)NC(=O)C(C(O)C2CNC(=N)N2)NC(=O)C(Cc2ccc(OC3OC(CO)C(OC4OC(CO)C(O)C(O)C4O)C4OC(C)(C)OC34)cc2)NC1=O (centres unmarked) [Example 229]
128 µg/mL: MIC Enterococcus avium (GC 4558) (Enterococcus sp.) | MIC Enterococcus avium (GC 4558) (Enterococcus sp.; inoculum 5×10^5 CFU/mL, strain GC 4558)
>128 µg/mL: MIC Escherichia coli (ATCC 25922) (Escherichia coli) | MIC Escherichia coli (GC 4559) (Escherichia coli) | MIC Escherichia coli (GC 4560) (Escherichia coli) | MIC Enterococcus faecalis (ATCC 29212) (Enterococcus sp.) | MIC Enterococcus faecalis (GC 2242) (Enterococcus sp.) | MIC Enterococcus faecalis (GC 2691) (Enterococcus sp.) | MIC Enterococcus faecalis (GC 3059) (Enterococcus sp.) | MIC Enterococcus faecalis (GC 4552) (Enterococcus sp.) | MIC Enterococcus faecalis (GC 4553) (Enterococcus sp.) | MIC Enterococcus faecalis (GC 4554) (Enterococcus sp.) | MIC Enterococcus faecalis (GC 6189) (Enterococcus sp.) | MIC Enterococcus faecium (GC 2243) (Enterococcus sp.) | MIC Enterococcus faecium (GC 4556) (Enterococcus sp.) | MIC Enterococcus faecium (GC 4557) (Enterococcus sp.) | MIC Enterococcus faecalis (ATCC 29212) (Enterococcus sp.; inoculum 5×10^5 CFU/mL, strain ATCC 29212) | MIC Enterococcus faecalis (GC 2242) (Enterococcus sp.; inoculum 5×10^5 CFU/mL, strain GC 2242) | MIC Enterococcus faecium (GC 2243) (Enterococcus sp.; inoculum 5×10^5 CFU/mL, strain GC 2243) | MIC Enterococcus faecalis (GC 2691) (Enterococcus sp.; inoculum 5×10^5 CFU/mL, strain GC 2691) | MIC Enterococcus faecalis (GC 3059) (Enterococcus sp.; inoculum 5×10^5 CFU/mL, strain GC 3059) | MIC Enterococcus faecalis (GC 4552) (Enterococcus sp.; inoculum 5×10^5 CFU/mL, strain GC 4552) | MIC Enterococcus faecalis (GC 4553) (Enterococcus sp.; inoculum 5×10^5 CFU/mL, strain GC 4553) | MIC Enterococcus faecalis (GC 4554) (Enterococcus sp.; inoculum 5×10^5 CFU/mL, strain GC 4554) | MIC Enterococcus faecium (GC 4556) (Enterococcus sp.; inoculum 5×10^5 CFU/mL, strain GC 4556) | MIC Enterococcus faecium (GC 4557) (Enterococcus sp.; inoculum 5×10^5 CFU/mL, strain GC 4557) | MIC Enterococcus faecalis (GC 6189) (Enterococcus sp.; inoculum 5×10^5 CFU/mL, strain GC 6189) | MIC Streptococcus agalactiae (GC 4564) (Streptococcus sp.) | MIC Streptococcus pneumoniae (ATCC 6301) (Streptococcus sp.) | MIC Streptococcus pneumoniae (GC 1894) (Streptococcus sp.) | MIC Streptococcus pneumoniae (GC 4565) (Streptococcus sp.) | MIC Streptococcus pyogenes (GC 4563) (Streptococcus sp.) | MIC Streptococcus pneumoniae (ATCC 6301) (Streptococcus sp.; inoculum 5×10^5 CFU/mL, strain ATCC 6301) | MIC Streptococcus pneumoniae (GC 1894) (Streptococcus sp.; inoculum 5×10^5 CFU/mL, strain GC 1894) | MIC Streptococcus pyogenes (GC 4563) (Streptococcus sp.; inoculum 5×10^5 CFU/mL, strain GC 4563) | MIC Streptococcus agalactiae (GC 4564) (Streptococcus sp.; inoculum 5×10^5 CFU/mL, strain GC 4564) | MIC Streptococcus pneumoniae (GC 4565) (Streptococcus sp.; inoculum 5×10^5 CFU/mL, strain GC 4565) | MIC Coagulase Negative Staphylococcus (GC 4547) (Staphylococcus sp.) | MIC Coagulase Negative Staphylococcus (GC 4548) (Staphylococcus sp.) | MIC Coagulase Negative Staphylococcus (GC 4549) (Staphylococcus sp.) | MIC Coagulase Negative Staphylococcus (GC 4551) (Staphylococcus sp.) | MIC Coagulase Negative Staphylococcus (GC 6257) (Staphylococcus sp.) | MIC Staphylococcus aureus-SMITH (GC 4543) (Staphylococcus sp.) | MIC Staphylococcus haemolyticus (GC 4546) (Staphylococcus sp.) | MIC Staphylococcus aureus-SMITH (GC 4543) (Staphylococcus sp.; strain GC 4543) | MIC Staphylococcus haemolyticus (GC 4546) (Staphylococcus sp.; strain GC 4546) | MIC Coagulase Negative Staphylococcus (GC 4547) (Staphylococcus sp.; strain GC 4547) | MIC Coagulase Negative Staphylococcus (GC 4548) (Staphylococcus sp.; strain GC 4548) | MIC Coagulase Negative Staphylococcus (GC 4549) (Staphylococcus sp.; strain GC 4549) | MIC Coagulase Negative Staphylococcus (GC 4551) (Staphylococcus sp.; strain GC 4551) | MIC Coagulase Negative Staphylococcus (GC 6257) (Staphylococcus sp.; strain GC 6257) | MIC Staphylococcus aureus (ATCC 29213) (Staphylococcus sp.; strain ATCC 29213) | MIC Staphylococcus aureus (GC 1131) (Staphylococcus sp.; strain GC 1131) | MIC Staphylococcus aureus (GC 3051) (Staphylococcus sp.; strain GC 3051) | MIC Staphylococcus aureus (GC 3053) (Staphylococcus sp.; strain GC 3053) | MIC Staphylococcus aureus (GC 4541) (Staphylococcus sp.; strain GC 4541) | MIC Staphylococcus aureus (GC 4542) (Staphylococcus sp.; strain GC 4542) | MIC Staphylococcus aureus (GC 4544) (Staphylococcus sp.; strain GC 4544) | MIC Staphylococcus aureus (GC 4545) (Staphylococcus sp.; strain GC 4545)
